In US10285986B2, “Compounds and anti-tumor NQO1 substrates” (The Board of Trustees of the University of Illinois, priority 2011, dated 2019):
Values after ≈ are worked out from the molar mass of the structure shown. Where two headings read alike, the source gives them in different places. Marks after values point to notes of the source that are not given here.

Experiments:
[1] = Solubility in organic solvents; type: physicochemical; settings: for solubility: organic solvent or mixture, thermodynamic from solid
Protocol: The solubility of DNQ derivatives in organic solvents was determined by measuring the amount of a given solvent required to dissolve a known amount of compound. Solvent was added to the compound in 50 μL aliquots and the slurry was sonicated. […] Solubility was assessed in DMSO, dichloromethane, and 33% methanol in dichloromethane (FIGS. 9, 10, and 11, respectively).

[2] = Solubility in organic solvents; type: physicochemical; settings: organic solvent or mixture, thermodynamic from solid; THF; Table 1
[3] = Aqueous solubility in pH 7.4 PBS by LC-MS; type: physicochemical; settings: phosphate buffered saline, pH 7.4, aqueous buffer, thermodynamic from solid, PBS pH 7.4; Table 4.3
Protocol: The aqueous solubility of DNQ at pH 7.4 in phosphate buffered saline (PBS) was measured by LC-MS. DNQ was sonicated for 30 minutes in PBS then undissolved solid was removed by filtration through a 0.45 μm syringe filter and the filtrate was analyzed by LC-MS (λ=275 nm, ESI-TOF in negative mode). The optimal sonication time was determined by sonicating DNQ for 1, 5, 10, and 30 minutes. While the concentration of DNQ in solution increased substantially between 1, 5, and 10 minutes, there was only a minor difference between 10 and 30 minutes. During the 30 minute sonication the water bath warmed to 45° C. (samples were cooled to room temperature before filtration). A calibration curve was generated from 1-100 μM by dissolving DNQ in methanol to a concentration of 500 μM and making dilutions of this stock in 80:20 water:methanol. The calibration curve (measure by UV absorbance) was linear over this range; 1 μM was approximately the limit of detection. […] The solution was very pale yellow.
The aqueous solubility of the compounds was determined by an LC-MS assay as described in the specification above. We applied the calibration curve generated for DNQ to the derivatives under the assumption that the UV profile of the derivatives of DNQ would be similar to that of DNQ.
After sonication and filtration most of the aqueous solutions were colorless. The solutions of DNQ, 4-31, and 4-37 were faintly yellow while 4-8, 4-14 and 4-41 were substantially more colored. The solution of 4-8, 4-14 and 4-41 were diluted 10-fold with PBS prior to LC-MS analysis to ensure that the concentrations fell within the range of the calibration curve.

MCF-7 cells = test: Cytotoxicity to MCF-7 cells with or without 25 μM dicoumarol (sulforhodamine B assay); type: cell-based, human; settings: for IC50: Homo sapiens; for Fold Protection of MCF7 cells w/ 25 μM dicoumarol: Table 1
Protocol: The NQO1-dependent cytotoxicity of the first set of derivatives was determined in MCF-7 cells which express high levels of NQO1. Cells were exposed to DNQ for 2 hours in the presence or absence of 25 μM DIC. The media was then removed and cells were washed once with media then fresh media was added and the cells were incubated for 72 hours. Cell death was assessed using the sulforhodamine B assay previously described. […] Substitution off the nitrogen appeared well tolerated (4-14 and 4-15).
The DNQ derivatives synthesized were assayed for their toxicity to MCF-7 cells with or without DIC. The data from these experiments is organized in Table 4.2. […] This tolerance of sterically-demanding substituents corresponds with a flexible and promiscuous NQO1 active site. The poor activity of hydroxyl derivative 4-41 may be a result of either poor binding with the largely hydrophobic NQO1 active site or with an excessively strong substrate-enzyme interaction because of hydrogen bonding.

NQO1 = NQO1 (Homo sapiens, UniProt P15559); test: NQO1 enzymatic measurements in vitro; type: biochemical; settings: 1 μM substrate
Protocol: As further evidence that the activity of these DNQ derivatives is dependent on their ability to be reduced by NQO1, full enzymatic measurements in vitro were performed. We found a strong correlation between catalytic efficiency of substrates in vitro and their cell culture toxicity. […] This provides strong evidence that the cytotoxicity of DNQ and its derivatives are dependent primarily upon the activity of NQO1 within the cell.

[4] = Solubility in 20% HPβCD solution (pH modulation protocol); type: physicochemical; settings: 20% HPβCD in pH 7.4 PBS, pH 7.4, aqueous with cosolvent or surfactant or cyclodextrin, thermodynamic from solid; 20% HPβCD; Table 4.3
Protocol: The protocol for formulating DNQ compounds in HPβCD is as follows: the DNQ compound is slurried in a 20% solution of HPβCD in pH 7.4 PBS and the pH is then increased by the addition of 10 M NaOH to induce dissolution of the DNQ compound. The pH is returned to pH 7.5-8.0 by the careful addition of 1 M HCl. A 3.3 mM solution of the DNQ compound can be made by this method which is stable at least 24 hours. This represents a 30-fold increase in solubility of DNQ over PBS alone.
Although we were pleased to find active derivatives of DNQ that were up to 4-fold more soluble in water—sufficiently soluble for continuous IV infusion for human administration—this level of solubility was insufficient for animal studies by bolus injection. […] We used the same pH modulation protocol outlined for DNQ described in the specification above. The results are organized in Table 4.3 and FIG. 8. While all compounds were more soluble in HPβCD than in buffer alone, the fold increase in solubility varied widely.

[5] = 2:1 CH2Cl2:MeOH, Table 4.3, read-out: Solubility in 2:1 CH2Cl2:MeOH
[6] = CH2Cl2:MeOH 2:1, Table 1, read-out: CH2Cl2:MeOH 2:1 solubility
[7] = CH2Cl2, Table 1, read-out: CH2Cl2 solubility
[8] = DMSO, Table 1, read-out: DMSO solubility
[9] = MCF7, 2 h, Table 4.1, 2 h exposure, no DIC, ± s.e., read-out: IC50 vs. MCF-7 cells
[10] = MCF7, Table 1, read-out: MCF7 IC50
[11] = MCF7, classification in figure legends of FIGS. 7-11, read-out: IC50 ("active" / generally "inactive" compounds)
[12] = MCF7, read-out: IC50 vs. MCF-7 cells +25 μM DIC, Table 4.1, +25 μM DIC, ± s.e.
[13] = MCF7, Table 4.2, no DIC, ± s.e., read-out: IC50 vs. MCF-7 cells
[14] = MCF7, read-out: IC50 vs. MCF-7 cells +25 μM DIC, Table 4.2, +25 μM DIC, ± s.e.

Sequence of NQO1 (P15559 whole entry): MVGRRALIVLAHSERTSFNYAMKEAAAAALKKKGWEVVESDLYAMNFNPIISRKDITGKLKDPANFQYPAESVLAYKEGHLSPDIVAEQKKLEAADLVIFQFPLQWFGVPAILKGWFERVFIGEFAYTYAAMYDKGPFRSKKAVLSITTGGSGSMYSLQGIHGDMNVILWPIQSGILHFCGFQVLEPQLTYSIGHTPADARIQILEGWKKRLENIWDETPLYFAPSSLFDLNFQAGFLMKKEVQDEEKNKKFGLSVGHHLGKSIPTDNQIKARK

Cc1cc(=O)[nH]c2c1C(=O)c1c(C)cc(=O)[nH]c1C2=O [Compound 2-78, reference compound]
solubility in solvents evaluated [1]: insoluble in all solvents evaluated except concentrated acids or bases

CCCc1cc(=O)n(C)c2c1C(=O)c1c(C)cc(=O)[nH]c1C2=O [Compound 4-9]
solubility [2]: 4.6 mM (≈ 1440 µg/mL)
Solubility in CH2Cl2 ([1]; CH2Cl2, Table 4.3): 6.1 mM (≈ 1910 µg/mL)
Solubility in DMSO ([1]; DMSO, Table 4.3): 10 mM (≈ 3120 µg/mL)
solubility [1, 5]: 18 mM (≈ 5620 µg/mL)
solubility [1, 6]: 18 mM (≈ 5620 µg/mL)
solubility [1, 7]: 6.1 mM (≈ 1910 µg/mL)
solubility [1, 8]: 10 mM (≈ 3120 µg/mL)
solubility at 30 min [3]: 0.059 mM (≈ 18.4 µg/mL)
IC50 (MCF-7 cells; [9]): 900 ± 250 nM
IC50 (MCF-7 cells; [10]): 930 nM
IC50 (MCF-7 cells; [11]): > 500 nM
IC50 (MCF-7 cells; [12]): 2600 ± 600 nM
Fold Protection of MCF7 cells w/ 25 μM dicoumarol (MCF-7 cells): 2.8
Fold protection by DIC (MCF-7 cells; Table 4.1): 2.8
NQO1 Initial Velocity @ 1 μM (NQO1): 600 ± 100

CCc1cc(=O)[nH]c2c1C(=O)c1c(C)cc(=O)n(C)c1C2=O [Compound 4-11]
solubility [2]: 3.9 mM (≈ 1160 µg/mL)
Solubility in CH2Cl2 ([1]; CH2Cl2, Table 4.3): 11 mM (≈ 3280 µg/mL)
Solubility in DMSO ([1]; DMSO, Table 4.3): 16 mM (≈ 4770 µg/mL)
solubility [1, 5]: 35 mM (≈ 10400 µg/mL)
solubility [1, 6]: 35 mM (≈ 10400 µg/mL)
solubility [1, 7]: 11 mM (≈ 3280 µg/mL)
solubility [1, 8]: 16 mM (≈ 4770 µg/mL)
solubility at 30 min [3]: 0.105 mM (≈ 31.3 µg/mL)
IC50 (MCF-7 cells; [9]): 550 ± 60 nM
IC50 (MCF-7 cells; [11]): > 500 nM
IC50 (MCF-7 cells; [12]): 4900 ± 800 nM
Fold protection by DIC (MCF-7 cells; Table 4.1): 8.9

CCCc1cc(=O)[nH]c2c1C(=O)c1c(C)cc(=O)n(C)c1C2=O [Compound 4-12]
Solubility in CH2Cl2 ([1]; CH2Cl2, Table 4.3): 2.0 mM (≈ 625 µg/mL)
Solubility in DMSO ([1]; DMSO, Table 4.3): 4.2 mM (≈ 1310 µg/mL)
solubility [1, 5]: 10 mM (≈ 3120 µg/mL)
solubility [1, 6]: 10 mM (≈ 3120 µg/mL)
solubility [1, 7]: 2 mM (≈ 625 µg/mL)
solubility [1, 8]: 4.2 mM (≈ 1310 µg/mL)
solubility at 30 min [3]: 0.035 mM (≈ 10.9 µg/mL)
IC50 (MCF-7 cells; [9]): 3400 ± 600 nM
IC50 (MCF-7 cells; [10]): 3400 nM
IC50 (MCF-7 cells; [11]): > 500 nM
IC50 (MCF-7 cells; [12]): 5300 ± 1200 nM
Fold Protection of MCF7 cells w/ 25 μM dicoumarol (MCF-7 cells): 1.6
Fold protection by DIC (MCF-7 cells; Table 4.1): 1.6
NQO1 Initial Velocity @ 1 μM (NQO1): 250*

CCCCCCCn1c2c(c(C)cc1=O)C(=O)c1c(C)cc(=O)[nH]c1C2=O [Compound 4-25]
solubility ([1]; CH2Cl2, Table 4.3, read-out: Solubility in CH2Cl2): 30 mM (≈ 11100 µg/mL)
solubility ([1]; DMSO, Table 4.3, read-out: Solubility in DMSO): 13 mM (≈ 4790 µg/mL)
solubility at 30 min [3]: < 0.005 mM
IC50 (MCF-7 cells; [13]): 420 ± 110 nM
IC50 (MCF-7 cells; [11]): < 500 nM
IC50 (MCF-7 cells; [14]): 4500 ± 400 nM
Fold protection by DIC (MCF-7 cells; Table 4.2): 11
solubility [4]: 3 mM (≈ 1110 µg/mL)

CCCCn1c2c(c(CCC)cc1=O)C(=O)c1c(C)cc(=O)[nH]c1C2=O [Compound 4-26]
solubility [2]: 17 mM (≈ 6020 µg/mL)
Solubility in CH2Cl2 ([1]; CH2Cl2, Table 4.3): 24 mM (≈ 8510 µg/mL)
Solubility in DMSO ([1]; DMSO, Table 4.3): 14 mM (≈ 4960 µg/mL)
solubility [1, 5]: 75 mM (≈ 26600 µg/mL)
solubility [1, 6]: 75 mM (≈ 26600 µg/mL)
solubility [1, 7]: 24 mM (≈ 8510 µg/mL)
solubility [1, 8]: 14 mM (≈ 4960 µg/mL)
solubility at 30 min [3]: < 0.005 mM
IC50 (MCF-7 cells; [10]): 770 nM
IC50 (MCF-7 cells; [13]): 770 ± 190 nM
IC50 (MCF-7 cells; [11]): > 500 nM
IC50 (MCF-7 cells; [14]): 2200 ± 600 nM
Fold Protection of MCF7 cells w/ 25 μM dicoumarol (MCF-7 cells): 2.8
Fold protection by DIC (MCF-7 cells; Table 4.2): 2.8
NQO1 Initial Velocity @ 1 μM (NQO1): 1300 ± 200

CCCCn1c2c(c(C)cc1=O)C(=O)c1c(CCC)cc(=O)[nH]c1C2=O [Compound 4-27]
solubility [2]: 12 mM (≈ 4250 µg/mL)
Solubility in CH2Cl2 ([1]; CH2Cl2, Table 4.3): 17 mM (≈ 6020 µg/mL)
Solubility in DMSO ([1]; DMSO, Table 4.3): 10 mM (≈ 3540 µg/mL)
solubility [1, 5]: 49 mM (≈ 17400 µg/mL)
solubility [1, 6]: 49 mM (≈ 17400 µg/mL)
solubility [1, 7]: 17 mM (≈ 6020 µg/mL)
solubility [1, 8]: 10 mM (≈ 3540 µg/mL)
solubility at 30 min [3]: < 0.005 mM
IC50 (MCF-7 cells; [10]): 6300 nM
IC50 (MCF-7 cells; [13]): 6300 ± 1100 nM
IC50 (MCF-7 cells; [11]): > 500 nM
IC50 (MCF-7 cells; [14]): 6800 ± 1600 nM
Fold Protection of MCF7 cells w/ 25 μM dicoumarol (MCF-7 cells): 1.1
Fold protection by DIC (MCF-7 cells; Table 4.2): 1.1
NQO1 Initial Velocity @ 1 μM (NQO1): 350 ± 10
